Experimental data reported in patent publication US6416967B2, “Method of using multicellular particulates to analyze malignant or hyperproliferative tissue” (Precision Therapeutics, Inc., priority 1996, dated 2002).

How the values were obtained:
Assay type in all cases: cell-based
human breast tumor cells = experiment: Hormonal therapy microtiter assay, inhibition of cell proliferation (Example 5)
[1] = tested on: human brain tumor and human ovarian tumor cells; experiment: Combined modality drug/radiation microtiter assay (Example 7); conditions: Taxol 0.5-25.0 μM with 2 Gy, or Taxol 5 μM with 1 Gy-6 Gy; through 5 days post-treatment; four tumor specimens
Method: Twenty-four (24) hours post-plating, cells in the microtiter plate wells were exposed to the chemotherapeutic agent Taxol. One set of plates was designed to have escalating Taxol doses with (0.5-25.0 μM) with a fixed radiation dose (2 Gy). A second set of plates was designed to have a fixed Taxol dose (5 μM) with an escalating radiation dose (1 Gy-6 Gy). The cells in the plates were irradiated using a Siemans Stabilipan X-ray machine operating at 250 kVp, 15 mA with a dose rate of 75 rad/minute.
For each of the two treatment schema, cell number per well was monitored as a function of time through 5 days post-treatment. Cell number relative to controls was determined and survival curves were fit.

[2] = tested on: human ovarian tumor cells; experiment: Combination chemotherapy microtiter assay, Taxol and carboplatin (Example 4); conditions: then 48 hours, four tumor specimens
Method: Twenty-four (24) hours post-plating, the chemotherapeutic agent Taxol was applied to the wells in the microtiter plates. […] Rows 5 and 9 served as a control. The Taxol exposure time was two hours. Twenty-four hours later, the cells in the wells were exposed to carboplatin for two hours. The tumor cells in the wells were then incubated for another 48 hours.
Cell number relative to control was determined.

CC/C(=C(\c1ccccc1)c1ccc(OCCN(C)C)cc1)c1ccccc1 [Tamoxifen]
inhibition of cell proliferation (cell number relative to control) (human breast tumor cells; 10 nM to 20 μM, six doses, 24 hours exposure, then 72 hours, four breast tumor specimens): two of the four breast specimens tested showed an inhibition of cell proliferation | concentration range in which the responses occurred (human breast tumor cells; tested range 10 nM to 20 μM): mid to high

CC(=O)O[C@H]1C(=O)[C@@]2(C)[C@H]([C@H](OC(=O)c3ccccc3)[C@]3(O)C[C@H](OC(=O)[C@H](O)[C@@H](NC(=O)c4ccccc4)c4ccccc4)C(C)=C1C3(C)C)[C@]1(OC(C)=O)CO[C@@H]1C[C@@H]2O [Taxol]
cell killing by drug combined with radiation (cell number relative to controls, survival curves) [1]: Both additive and synergistic cell killing | cell number relative to control, escalating Taxol/fixed carboplatin ([2]; Taxol 1.0, 5.0, 25 μM for two hours, carboplatin 200 μM for two hours 24 h later): dose response relationship was observed

N.N.O=C([O-])C1(C(=O)[O-])CCC1.[Pt+2] [carboplatin]
cell number relative to control, fixed Taxol/escalating carboplatin ([2]; Taxol 5 μM for two hours, carboplatin 50, 200, 1000 μM for two hours 24 h later): dose response relationship was observed
